Series [1] concerns the target T1, S1R (Cavia porcellus, UniProt Q60492). Description: S1R binding affinity of previously published compounds. The following applies: ln of experimental Ki S1R (nM), Table 1. An excerpt:
Table 1 Glide Gscores, calculated Ligand Efficiencies and experimentally determined Ki values of compounds 1–8 employed for the elaboration of the docking model. | column: ln(Ki)

In series [2] the target is T1, S1R. Put plainly: S1R radioligand binding assay ([3H](+)-pentazocine, guinea pig brain cortex membranes). On the set-up: The thawed membrane preparation of guinea pig brain cortex; from tissue; host or cells: guinea pig brain (cerebral) cortex membranes.
For series [3], the target named is T2, S2R (Rattus norvegicus, UniProt Q5U3Y7).
T2 construct: The assay was performed using 150 µg of rat liver homogenate; from tissue; host or cells: rat liver homogenate / membranes
T2 sequence (Q5U3Y7 1-176): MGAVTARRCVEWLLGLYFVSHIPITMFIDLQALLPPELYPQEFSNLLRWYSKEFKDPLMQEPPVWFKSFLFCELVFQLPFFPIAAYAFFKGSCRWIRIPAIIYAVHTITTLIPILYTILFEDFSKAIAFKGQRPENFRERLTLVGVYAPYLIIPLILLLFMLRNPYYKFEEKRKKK
Description: S2R radioligand binding assay ([3H]-DTG, rat liver membranes). The following applies: (+)-pentazocine to mask S1R.

For series [4], the target named is T3, GluN2 subunit of NMDA (GluN1a and GluN2B subunits) (Homo sapiens, UniProt Q05586+Q13224).
T3 construct: expressed in transfected cells; host or cells: L(tk-) cells, stably transfected
T3 sequence (Q13224 27-1484, other chains not shown): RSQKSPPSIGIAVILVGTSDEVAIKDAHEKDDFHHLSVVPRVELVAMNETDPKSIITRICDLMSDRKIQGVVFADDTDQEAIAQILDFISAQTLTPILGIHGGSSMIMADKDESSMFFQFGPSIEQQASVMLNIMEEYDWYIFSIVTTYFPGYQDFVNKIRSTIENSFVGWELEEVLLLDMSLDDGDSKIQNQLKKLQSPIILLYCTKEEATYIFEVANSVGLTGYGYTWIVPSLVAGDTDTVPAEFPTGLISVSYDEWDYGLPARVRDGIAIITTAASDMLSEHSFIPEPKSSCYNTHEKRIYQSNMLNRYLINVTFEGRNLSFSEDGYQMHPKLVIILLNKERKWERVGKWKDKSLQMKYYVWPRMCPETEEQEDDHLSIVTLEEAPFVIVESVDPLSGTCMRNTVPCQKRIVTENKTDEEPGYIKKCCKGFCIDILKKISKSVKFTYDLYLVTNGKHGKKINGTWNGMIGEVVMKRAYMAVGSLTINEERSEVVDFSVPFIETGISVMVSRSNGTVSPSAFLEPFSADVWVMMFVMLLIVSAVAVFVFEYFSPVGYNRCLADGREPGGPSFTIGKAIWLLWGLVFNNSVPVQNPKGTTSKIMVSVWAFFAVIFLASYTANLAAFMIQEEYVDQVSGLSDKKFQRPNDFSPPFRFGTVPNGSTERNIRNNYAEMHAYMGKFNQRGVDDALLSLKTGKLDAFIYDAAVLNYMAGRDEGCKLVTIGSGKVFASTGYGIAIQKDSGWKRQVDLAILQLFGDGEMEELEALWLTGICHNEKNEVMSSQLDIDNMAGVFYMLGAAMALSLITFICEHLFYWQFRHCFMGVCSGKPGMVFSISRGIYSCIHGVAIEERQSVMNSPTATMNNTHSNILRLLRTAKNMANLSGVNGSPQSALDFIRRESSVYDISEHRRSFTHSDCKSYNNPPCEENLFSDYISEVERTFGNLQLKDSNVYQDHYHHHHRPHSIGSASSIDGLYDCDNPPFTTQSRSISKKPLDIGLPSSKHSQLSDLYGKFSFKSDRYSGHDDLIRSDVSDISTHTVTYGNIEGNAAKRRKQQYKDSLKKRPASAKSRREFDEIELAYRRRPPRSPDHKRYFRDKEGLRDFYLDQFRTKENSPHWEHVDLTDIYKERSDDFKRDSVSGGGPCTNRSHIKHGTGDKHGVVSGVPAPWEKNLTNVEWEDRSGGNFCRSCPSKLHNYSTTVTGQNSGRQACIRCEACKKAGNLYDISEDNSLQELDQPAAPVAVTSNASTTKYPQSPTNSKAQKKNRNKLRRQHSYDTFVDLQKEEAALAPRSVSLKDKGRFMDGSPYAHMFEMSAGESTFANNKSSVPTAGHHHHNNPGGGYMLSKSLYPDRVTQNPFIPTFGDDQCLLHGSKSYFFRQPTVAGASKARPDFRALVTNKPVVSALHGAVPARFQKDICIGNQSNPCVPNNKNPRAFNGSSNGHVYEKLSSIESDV
Put plainly: GluN2 binding assay ([3H]-ifenprodil, membranes of transfected L(tk-) cells).

The target of series [5] is AChE (Electrophorus electricus, UniProt O42275). Put plainly: Inhibition of AChE, modified Ellman's method. The class given is biochemical. The method, then: To test the potential to inhibit AChE, a spectrophotometric procedure was adopted, based on the well-known Ellman’s method. Firstly, the target compound was tested at a concentration of 50 μM and a 72% of inhibition was observed.
Chain of AChE (O42275 24-633): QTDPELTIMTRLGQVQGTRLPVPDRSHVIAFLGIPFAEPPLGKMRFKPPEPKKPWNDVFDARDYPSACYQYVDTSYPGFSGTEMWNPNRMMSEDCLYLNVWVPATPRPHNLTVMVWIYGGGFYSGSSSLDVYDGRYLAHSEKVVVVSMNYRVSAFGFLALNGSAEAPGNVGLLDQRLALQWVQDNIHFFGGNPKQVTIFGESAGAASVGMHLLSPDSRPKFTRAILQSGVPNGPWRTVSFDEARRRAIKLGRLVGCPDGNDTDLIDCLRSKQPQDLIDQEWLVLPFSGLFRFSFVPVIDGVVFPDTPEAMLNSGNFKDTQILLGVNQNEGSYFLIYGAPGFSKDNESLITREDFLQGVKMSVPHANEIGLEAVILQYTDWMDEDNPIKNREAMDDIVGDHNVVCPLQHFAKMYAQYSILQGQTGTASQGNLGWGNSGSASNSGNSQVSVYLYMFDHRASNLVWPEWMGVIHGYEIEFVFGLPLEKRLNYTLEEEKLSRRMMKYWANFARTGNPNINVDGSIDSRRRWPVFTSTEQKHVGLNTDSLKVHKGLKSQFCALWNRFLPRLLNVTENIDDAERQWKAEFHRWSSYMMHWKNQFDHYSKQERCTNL
AChE inhibitory activity of compound 12 was determined by the modified Ellman’s method. Briefly, a stock solution of tested compound (5.0 mM) was prepared in DMSO and diluted using 0.1 M KH2PO4/K2HPO4 buffer (pH 8.0) to afford a final concentration range between […]. Enzyme solutions were prepared by dissolving lyophilized powder in double-distilled water. […] The reaction was started by addition of […] of the 0.075 M substrate solution (acetylthiocholine iodide) and exactly 2 min after substrate addition, the absorption was measured at 25 °C at 412 nm. In enzyme-free assay systems the non-enzymatic hydrolysis of acetylthiocholine iodide was measured, and the results were employed as blank. […] Each experiment was performed in triplicate, and the mean ± standard deviation was calculated. Data from concentration-inhibition experiments of the inhibitors were calculated by nonlinear regression analysis, using the Excel program.
(In general: DTNB colorimetry detects thiols as they appear.)

The subject of series [6] is HeLa cells. Put plainly: Osmotic water permeability (AQP-mediated), stopped-flow light scattering. The class given is cell-based. The method, then:
Prompted by these encouraging results, we decided to draw the antioxidant profile of compound 12, since it is well-known that oxidative stress is connected with insurgence and exacerbation of neurodegenerative diseases. In particular, the AQP-mediated antioxidant properties of RC-33 (i.e., 1-[3-(1,1′-biphen)-4-yl]butylpiperidine, our in-house developed selective S1R agonist) and 12 were evaluated in HeLa cells, following the procedures reported in our most recent studies. Briefly, osmotic water permeability was measured by a stopped-flow light scattering method and expressed as percentage of k relative. Compounds RC-33 and 12 were tested at 20 µM whereas curcumin was used as control of the goodness of the cellular assay, since its capability to affect the AQPs permeability was assessed in our previous work. The compounds were initially assessed on non-stressed HeLa cells to evaluate the capability of the compounds to affect the AQPs permeability in absence of an oxidant stimuli. […] Conversely, curcumin directly affect AQPs resulting in a significative permeability reduction (75% of k relative). RC-33, 12 and curcumin were further assessed under oxidative stress conditions induced by heating the cell cultures. […] Thus, to probe the entanglement between S1R, AQP permeability and antioxidant protection, compound 12 was assessed against stressed HeLa cells in presence of NE-100, a well-known and fully characterized S1R antagonist.
Osmotic water permeability was measured in HeLa cells suspension by the stopped-flow light scattering method as previously described.
The antioxidant effect of compound 12 on water permeability HeLa cells were divided into different groups: (1) Controls, cells incubated at room temperature (21 °C); (2) heat-stressed cells, cells subjected to heat-treatment by incubating them in a water thermostatic and shacking bath at 42 °C for 3 h; (3) heat-stressed cells pre-treated, cells heat-stressed in the presence of the compound 12 at 20 µM final concentration (dissolved in methanol). Moreover, to test the possible capacity of the molecules to affect the AQP gating in normal condition, HeLa cells were treated in the presence and in the absence of the compounds by incubating at 21 °C for 3 h.

The target of series [7] is T1, S1R. On the set-up: method as in PMID 30223122. The following applies: read-out: KiS1R; cited from earlier work.
Series [8] addresses S2R. On the set-up: method as in PMID 30223122. The following applies: read-out: KiS2R; cited from earlier work.
Setting [9] is: guinea pig cerebral cortex membranes, [3H]-(+)-pentazocine, read-out: Experimental Ki S1R (nM) ± SEM.
Where [10] appears, read: ln of experimental Ki S1R (nM), read-out: Experimental Ki S1R (converted).
Where [11] appears, read: Experimental Ki S1R (nM) ± SEM, guinea pig cerebral cortex membranes, [3H]-(+)-pentazocine.
Where [12] appears, read: Experimental ln(Ki), ln of experimental Ki S1R (nM).
The mark [13] stands for this setting: heat-stressed HeLa cells (42 °C 3 h), pre-treated at 20 µM.
Where [14] appears, read: non-stressed HeLa cells, 21 °C 3 h, 20 µM.

Where a name gives a salt, the structure may show the parent alone. Read-outs that look alike come from different tables or passages of the source.

T1 sequence (Q60492 whole entry): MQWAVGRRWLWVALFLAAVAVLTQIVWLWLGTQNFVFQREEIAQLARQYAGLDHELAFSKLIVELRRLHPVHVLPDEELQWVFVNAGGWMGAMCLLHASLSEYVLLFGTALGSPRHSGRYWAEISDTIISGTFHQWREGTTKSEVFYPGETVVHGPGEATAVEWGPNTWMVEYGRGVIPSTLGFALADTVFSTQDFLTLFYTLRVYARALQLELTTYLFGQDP

Broadly, the melting point is the temperature of the solid-liquid transition. On to `O=C(CN1CCCCC1)c1ccc(-c2ccccc2)cc1` (as salt: hydrochloride) [Compound 8, 1-(2-([1,1’-biphenyl]-4-yl)-2-oxoethyl)piperidin-1-ium hydrochloride], for which the melting point fell in the range of 236 to 238 °C. On the same count and under the same terms, then `O=C(CN1CCCCC1)c1ccc(OCc2ccccc2)cc1` (as salt: hydrochloride) [Compound 9, 1-(2-(4-(benzyloxy)phenyl)-2-oxoethyl)piperidin-1-ium hydrochloride], with 86 to 88 °C; and `O=C(CCCN1CCCCC1)c1ccc(OCc2ccccc2)cc1` (as salt: hydrochloride) [Compound 13, 1-(4-(4-(benzyloxy)phenyl)-4-oxobutyl)piperidin-1-ium hydrochloride], with 188 to 190 °C. Take `O=C(CN1CCC(Cc2ccccc2)CC1)c1ccc2ccccc2c1` [Compound 1]: the “ln(Ki)” value in series [1] was 3.296. Still for that read-out and setting: the result for `O=C(CCN1CCCCC1)c1ccc(-c2ccccc2)cc1` [Compound 2] reads 2.708; that for `O=C(CCN1CCCCC1)c1ccc2ccccc2c1` [Compound 3], 0.788. `O=C(CCN1CCOCC1)c1ccc(-c2ccccc2)cc1` [Compound 4]: in series [1], the “ln(Ki)” value amounted to 1.065. Same read-out and setting: then `O=C(CCN1CCOCC1)c1ccc2ccccc2c1` [Compound 5], with 2.197.

`O=C(CN1CCC(Cc2ccccc2)CC1)c1ccc(-c2ccccc2)cc1` [Compound 6]: the “ln(Ki)” value in [1] is given as 5.829. `O=C(CN1CCCCC1)c1ccc(-c2ccccc2)cc1` [Compound 8, 1-(2-([1,1’-biphenyl]-4-yl)-2-oxoethyl)piperidin-1-ium hydrochloride]: the Ki in series [2] (setting [9]) is 132 ± 55 nM; in series [2] (setting [10]), 132 nM. Regarding `O=C(CN1CCCCC1)c1ccc(OCc2ccccc2)cc1` [Compound 9, 1-(2-(4-(benzyloxy)phenyl)-2-oxoethyl)piperidin-1-ium hydrochloride], the Ki in series [2] (setting [11]) is 48 ± 12 nM; in series [2] (setting [12]) it was 48 nM.

For `O=C(CCN1CCCCC1)c1ccc(OCc2ccccc2)cc1` [Compound 10, 1-(3-(4-(benzyloxy)phenyl)-3-oxopropyl)piperidin-1-ium hydrochloride], the Ki is 25 ± 7 nM in series [2] (setting [9]) and 25 nM in series [2] (setting [10]). On to `O=C(CCCN1CCCCC1)c1ccc2ccccc2c1` [Compound 11, 1-(4-(naphthalen-2-yl)-4-oxobutyl)piperidin-1-ium hydrochloride], for which the Ki in series [3] was 50 nM; in series [2] (setting [9]) it was 4.4 ± 2.4 nM; in series [2] (setting [10]) it was 4.4 nM. In general, inhibition refers to how much of the control response was suppressed. As a reminder, the IC50 is the concentration at which inhibition is half-maximal. Lower therefore signals greater potency in that assay. Take `O=C(CCCN1CCCCC1)c1ccc(-c2ccccc2)cc1` [Compound 12, 1-(4-([1,1’-biphenyl]-4-yl)-4-oxobutyl)piperidin-1-ium hydrochloride]: the Ki in [4] is 200 nM; in series [2] (setting [11]), 33 ± 14 nM; in [2] (setting [12]), 33 nM. For the same compound, testing at 50 µM in series [5] (50 μM) gave an inhibition of 72%. In [5] (Ellman's method), this compound came in with an IC50 of 680 ± 90 nM. In addition, the “osmotic water permeability, percent of k relative” value in series [6] (setting [13]) is “able to prevent the water permeability reduction”; in series [6] (setting [14]), “did not affect the water permeability”.

For `O=C(CCCN1CCCCC1)c1ccc(OCc2ccccc2)cc1` [Compound 13, 1-(4-(4-(benzyloxy)phenyl)-4-oxobutyl)piperidin-1-ium hydrochloride], the Ki in series [2] (setting [9]) was 87 ± 28 nM; in series [2] (setting [10]), 87 nM.

As to `CCCN(CCC)CCc1ccc(OC)c(OCCc2ccccc2)c1` [NE-100], the “osmotic water permeability, percent of k relative” value in series [6] (setting [13]) is on record as 78 % of k relative.

On to `CC(CCN1CCCCC1)c1ccc(-c2ccccc2)cc1` (stereo not shown) [RC-33, 1-[3-(1,1′-biphen)-4-yl]butylpiperidine], for which the figures for the “osmotic water permeability, percent of k relative” value in series [6] (setting [13]) and in series [6] (setting [14]) were “able to prevent the water permeability reduction” and “comparable”, respectively. The Ki is 1.8 ± 0.1 nM in [7] and 45 ± 16 nM in series [8]. Consider `COc1cc(/C=C/C(=O)CC(=O)/C=C/c2ccc(O)c(OC)c2)ccc1O` [curcumin], for which the “osmotic water permeability, percent of k relative” value in [6] (setting [13]) is on record as “not able to protect the AQPs’ permeability properties”; in series [6] (setting [14]) it was 75 % of k relative.
